The results in this text go back to BindingDB's records for doi:10.1016/j.bioorg.2015.09.001 (Universiti Teknologi Mara (Uitm), 2015).

Structures are written as SMILES.

For the experiment, the target named is Alpha-glucosidase MAL12 (Saccharomyces cerevisiae (strain ATCC 204508 / S288c), UniProt P53341). In words: α-Glucosidase Inhibitory Activity. Here is the method: The 135 µL of 50 mM phosphate saline buffer pH (6.8) was added in the 96-well plate and 20 µL of test sample with 70% DMSO added into the wells. The solution of Enzyme 20 µL was added into the wells, and incubated the plate for 15 min. After incubation pre-read of the plate was taken by the spectra max. Afterward 25 µL of the substrate (pNPG) was added and a reading was taken on spectra max at 400 nm for 30 min. The normal reading is taken and the percent inhibition was calculated.
Chain of Alpha-glucosidase MAL12 (P53341 whole entry): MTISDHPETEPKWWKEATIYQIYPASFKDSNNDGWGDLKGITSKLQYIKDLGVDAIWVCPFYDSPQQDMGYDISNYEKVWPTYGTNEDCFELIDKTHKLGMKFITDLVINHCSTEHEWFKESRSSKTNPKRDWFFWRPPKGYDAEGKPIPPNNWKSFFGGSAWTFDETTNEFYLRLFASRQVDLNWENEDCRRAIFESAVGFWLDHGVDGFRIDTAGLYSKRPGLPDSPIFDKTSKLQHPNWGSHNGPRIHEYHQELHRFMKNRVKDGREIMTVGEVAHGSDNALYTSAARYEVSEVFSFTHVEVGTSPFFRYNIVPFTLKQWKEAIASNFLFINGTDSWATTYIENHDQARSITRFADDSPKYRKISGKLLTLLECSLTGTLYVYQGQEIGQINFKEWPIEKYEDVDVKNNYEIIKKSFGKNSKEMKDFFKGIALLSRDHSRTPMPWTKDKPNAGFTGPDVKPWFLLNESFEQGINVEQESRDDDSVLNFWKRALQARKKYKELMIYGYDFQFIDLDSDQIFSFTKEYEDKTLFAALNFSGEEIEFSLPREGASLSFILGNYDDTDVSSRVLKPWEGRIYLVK

With `O=C(N/N=C/c1cccc(O)c1O)c1cc2ccccc2[nH]1` [(E)-N'-(2,3-dihydroxybenzylidene)-1H-indole-2-carbohydrazide (6)], the IC50 was 86.5 µM.

In the case of `O=C(N/N=C/c1c(O)cc(O)cc1O)c1cc2ccccc2[nH]1` [(E)-N'-(2,4,6-trihydroxybenzylidene)-1H-indole-2-carbohydrazide (2)], the IC50 is 49.2 µM.

Regarding `O=C(N/N=C/c1cc(O)ccc1O)c1cc2ccccc2[nH]1` [(E)-N'-(2,5-dihydroxybenzylidene)-1H-indole-2-carbohydrazide (3)], the IC50 was found to be 144 µM.

Take `COc1ccc(O)c(/C=N/NC(=O)c2cc3ccccc3[nH]2)c1` [(E)-N'-(2-hydroxy-5-methoxybenzylidene)-1H-indole-2-carbohydrazide (13)]: inhibition was half-maximal at 49.2 µM (IC50).

`O=C(N/N=C/c1ccccc1O)c1cc2ccccc2[nH]1` [(E)-N'-(2-hydroxybenzylidene)-1H-indole-2-carbohydrazide (10)] displayed an IC50 of 42.6 µM.

Take `O=C(N/N=C/c1cc(O)c(O)c(O)c1)c1cc2ccccc2[nH]1` [(E)-N'-(3,4,5-trihydroxybenzylidene)-1H-indole-2-carbohydrazide (1)]: it took 2.3 µM to reach half-maximal inhibition (IC50).

The compound `O=C(N/N=C/c1ccc(O)c(O)c1)c1cc2ccccc2[nH]1` [(E)-N'-(3,4-dihydroxybenzylidene)-1H-indole-2-carbohydrazide (4)] displayed an IC50 of 41 µM.

`O=C(N/N=C/c1cc(O)cc(O)c1)c1cc2ccccc2[nH]1` [(E)-N'-(3,5-dihydroxybenzylidene)-1H-indole-2-carbohydrazide (7)] showed a concentration for half-maximal inhibition (IC50) of 226 µM.

As to `O=C(N/N=C/c1ccc(F)c(Br)c1)c1cc2ccccc2[nH]1` [(E)-N'-(3-Bromo-4-fluorobenzylidene)-1H-indole-2-carbohydrazide (19)], the IC50 was 26.6 µM.

Compound `COc1ccc(/C=N/NC(=O)c2cc3ccccc3[nH]2)c(I)c1O` [(E)-N'-(3-hydroxy-2-iodo-4-methoxybenzylidene)-1H-indole-2-carbohydrazide (14)] yielded an IC50 of 54.6 µM.

As to `COc1ccc(/C=N/NC(=O)c2cc3ccccc3[nH]2)cc1O` [(E)-N'-(3-hydroxy-4-methoxybenzylidene)-1H-indole-2-carbohydrazide (11)], the IC50 turned out to be 191 µM.

The compound `O=C(N/N=C/c1ccc(Cl)cc1)c1cc2ccccc2[nH]1` [(E)-N'-(4-Chlorobenzylidene)-1H-indole-2-carbohydrazide (27)] gave a half-inhibitory concentration (IC50) of 32.1 µM.

As for `COc1cc(/C=N/NC(=O)c2cc3ccccc3[nH]2)ccc1O` [(E)-N'-(4-hydroxy-3-methoxybenzylidene)-1H-indole-2-carbohydrazide (8)], the IC50 came to 155 µM.

The compound `O=C(N/N=C/c1ccc(O)cc1)c1cc2ccccc2[nH]1` [(E)-N'-(4-hydroxybenzylidene)-1H-indole-2-carbohydrazide (9)] gave an IC50 of 206 µM.

As a reminder, the IC50 is the concentration that inhibits the measured activity by half. The low end stands for greater potency, the high end for weaker potency.
